From patent US11718604B2, “4-amino-6-(1,3-benzodioxole)picolinates and their use as herbicides” (Dow AgroSciences LLC, priority 2018, dated 2023)

Legend:
Type in all cases: in vivo
[1] = test system: ABUTH: velvetleaf (Abutilon theophrasti); experiment: Post-emergent herbicidal test, velvetleaf; settings: post-emergence, 336 h, 14 days after application, read-out: Visual Growth Reduction (%) 14 Days After Application ABUTH; for pest or weed control at 17.5 g/ha: 17.5 g ai/ha; for pest or weed control at 35 g/ha: 35 g ai/ha; for pest or weed control at 70 g/ha: 70 g ai/ha; for pest or weed control at 140 g/ha: 140 g ai/ha
Summary of the method: (§1)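 Visual injury rating, 0 (none) to 100% (complete kill), made 14 d after treatment relative to untreated plants. Foliar track-sprayer application at 187 L/ha to plants at the 1st-2nd true leaf stage; rates were twofold serial dilutions from the highest rate down to 1/16×.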

[2] = test system: BRSNN: oilseed rape, canola (Brassica napus); experiment: Post-emergent herbicidal test, oilseed rape; settings: post-emergence, 336 h, 14 days after application, read-out: Visual Growth Reduction (%) 14 Days After Application BRSNN; for pest or weed control at 17.5 g/ha: 17.5 g ai/ha; for pest or weed control at 35 g/ha: 35 g ai/ha; for pest or weed control at 70 g/ha: 70 g ai/ha; for pest or weed control at 140 g/ha: 140 g ai/ha
Summary of the method: as §1

[3] = test system: CIRAR: Canada thistle (Cirsium arvense); experiment: Post-emergent herbicidal test, Canada thistle; settings: post-emergence, 336 h, 14 days after application, read-out: Visual Growth Reduction (%) 14 Days After Application CIRAR; for pest or weed control at 17.5 g/ha: 17.5 g ai/ha; for pest or weed control at 35 g/ha: 35 g ai/ha; for pest or weed control at 70 g/ha: 70 g ai/ha; for pest or weed control at 140 g/ha: 140 g ai/ha
Summary of the method: as §1

[4] = test system: EPHHL: wild poinsettia (Euphorbia heterophylla); experiment: Post-emergent herbicidal test, wild poinsettia; settings: post-emergence, 336 h, 14 days after application, read-out: Visual Growth Reduction (%) 14 Days After Application EPHHL; for pest or weed control at 17.5 g/ha: 17.5 g ai/ha; for pest or weed control at 35 g/ha: 35 g ai/ha; for pest or weed control at 70 g/ha: 70 g ai/ha; for pest or weed control at 140 g/ha: 140 g ai/ha
Summary of the method: as §1

[5] = test system: IPOHE: ivyleaf morningglory (Ipomoea hederacea); experiment: Post-emergent herbicidal test, ivyleaf morningglory; settings: post-emergence, 336 h, 14 days after application, read-out: Visual Growth Reduction (%) 14 Days After Application IPOHE; for pest or weed control at 17.5 g/ha: 17.5 g ai/ha; for pest or weed control at 35 g/ha: 35 g ai/ha; for pest or weed control at 70 g/ha: 70 g ai/ha; for pest or weed control at 140 g/ha: 140 g ai/ha
Summary of the method: as §1

[6] = test system: VIOTR: wild violet (Viola tricolor); experiment: Post-emergent herbicidal test, wild violet; settings: post-emergence, 336 h, 14 days after application, read-out: Visual Growth Reduction (%) 14 Days After Application VIOTR; for pest or weed control at 17.5 g/ha: 17.5 g ai/ha; for pest or weed control at 35 g/ha: 35 g ai/ha; for pest or weed control at 70 g/ha: 70 g ai/ha; for pest or weed control at 140 g/ha: 140 g ai/ha
Summary of the method: as §1

[7] = test system: CYPES: yellow nutsedge (Cyperus esculentus); experiment: Post-emergent herbicidal test, yellow nutsedge; settings: post-emergence, 336 h, 14 days after application, read-out: Visual Growth Reduction (%) 14 Days After Application CYPES; for pest or weed control at 17.5 g/ha: 17.5 g ai/ha; for pest or weed control at 35 g/ha: 35 g ai/ha; for pest or weed control at 70 g/ha: 70 g ai/ha; for pest or weed control at 140 g/ha: 140 g ai/ha
Summary of the method: as §1

[8] = test system: DIGSA: large crabgrass (Digitaria sanguinalis); experiment: Post-emergent herbicidal test, large crabgrass; settings: post-emergence, 336 h, 14 days after application, read-out: Visual Growth Reduction (%) 14 Days After Application DIGSA; for pest or weed control at 17.5 g/ha: 17.5 g ai/ha; for pest or weed control at 35 g/ha: 35 g ai/ha; for pest or weed control at 70 g/ha: 70 g ai/ha; for pest or weed control at 140 g/ha: 140 g ai/ha
Summary of the method: as §1

[9] = test system: ECHCG: barnyardgrass (Echinochloa crus-galli); experiment: Post-emergent herbicidal test, barnyardgrass; settings: post-emergence, 336 h, 14 days after application, read-out: Visual Growth Reduction (%) 14 Days After Application ECHCG; for pest or weed control at 17.5 g/ha: 17.5 g ai/ha; for pest or weed control at 35 g/ha: 35 g ai/ha; for pest or weed control at 70 g/ha: 70 g ai/ha; for pest or weed control at 140 g/ha: 140 g ai/ha
Summary of the method: as §1

[10] = test system: SETFA: giant foxtail (Setaria faberi); experiment: Post-emergent herbicidal test, giant foxtail; settings: post-emergence, 336 h, 14 days after application, read-out: Visual Growth Reduction (%) 14 Days After Application SETFA; for pest or weed control at 17.5 g/ha: 17.5 g ai/ha; for pest or weed control at 35 g/ha: 35 g ai/ha; for pest or weed control at 70 g/ha: 70 g ai/ha; for pest or weed control at 140 g/ha: 140 g ai/ha
Summary of the method: as §1

[11] = test system: SORVU: shattercane (Sorghum bicolor); experiment: Post-emergent herbicidal test, shattercane; settings: post-emergence, 336 h, 14 days after application, read-out: Visual Growth Reduction (%) 14 Days After Application SORVU; for pest or weed control at 17.5 g/ha: 17.5 g ai/ha; for pest or weed control at 35 g/ha: 35 g ai/ha; for pest or weed control at 70 g/ha: 70 g ai/ha; for pest or weed control at 140 g/ha: 140 g ai/ha
Summary of the method: as §1

Nc1c(F)c(-c2ccc(F)c3c2OC(F)(F)O3)nc(C(=O)O)c1Cl [Compound 8]
pest or weed control at 17.5 g/ha [1]: 30% | pest or weed control at 35 g/ha [1]: 40% | pest or weed control at 70 g/ha [1]: 60% | pest or weed control at 140 g/ha [1]: 75% | pest or weed control at 17.5 g/ha [2]: 70% | pest or weed control at 35 g/ha [2]: 75% | pest or weed control at 70 g/ha [2]: 85% | pest or weed control at 140 g/ha [2]: 97% | pest or weed control at 17.5 g/ha [3]: 20% | pest or weed control at 35 g/ha [3]: 75% | pest or weed control at 70 g/ha [3]: 80% | pest or weed control at 140 g/ha [3]: 80% | pest or weed control at 17.5 g/ha [4]: 0% | pest or weed control at 35 g/ha [4]: 0% | pest or weed control at 70 g/ha [4]: 0% | pest or weed control at 140 g/ha [4]: 0% | pest or weed control at 17.5 g/ha [5]: 0% | pest or weed control at 35 g/ha [5]: 0% | pest or weed control at 70 g/ha [5]: 10% | pest or weed control at 140 g/ha [5]: 10% | pest or weed control at 17.5 g/ha [6]: 0% | pest or weed control at 35 g/ha [6]: 5% | pest or weed control at 70 g/ha [6]: 15% | pest or weed control at 140 g/ha [6]: 35% | pest or weed control at 17.5 g/ha [7]: 0% | pest or weed control at 35 g/ha [7]: 0% | pest or weed control at 70 g/ha [7]: 0% | pest or weed control at 140 g/ha [7]: 10% | pest or weed control at 17.5 g/ha [8]: 0% | pest or weed control at 35 g/ha [8]: 0% | pest or weed control at 70 g/ha [8]: 0% | pest or weed control at 140 g/ha [8]: 0% | pest or weed control at 17.5 g/ha [9]: 0% | pest or weed control at 35 g/ha [9]: 0% | pest or weed control at 70 g/ha [9]: 0% | pest or weed control at 140 g/ha [9]: 0% | pest or weed control at 17.5 g/ha [10]: 0% | pest or weed control at 35 g/ha [10]: 0% | pest or weed control at 70 g/ha [10]: 0% | pest or weed control at 140 g/ha [10]: 0% | pest or weed control at 17.5 g/ha [11]: 0% | pest or weed control at 35 g/ha [11]: 0% | pest or weed control at 70 g/ha [11]: 0% | pest or weed control at 140 g/ha [11]: 0%

Nc1c(F)c(-c2ccc(Br)c3c2OC(F)(F)O3)nc(C(=O)O)c1Cl [Compound 11]
pest or weed control at 17.5 g/ha [1]: 50% | pest or weed control at 35 g/ha [1]: 70% | pest or weed control at 70 g/ha [1]: 80% | pest or weed control at 140 g/ha [1]: 85% | pest or weed control at 17.5 g/ha [2]: 90% | pest or weed control at 35 g/ha [2]: 90% | pest or weed control at 70 g/ha [2]: 90% | pest or weed control at 140 g/ha [2]: 90% | pest or weed control at 17.5 g/ha [3]: 80% | pest or weed control at 35 g/ha [3]: 85% | pest or weed control at 70 g/ha [3]: 90% | pest or weed control at 140 g/ha [3]: 90% | pest or weed control at 17.5 g/ha [4]: 0% | pest or weed control at 35 g/ha [4]: 0% | pest or weed control at 70 g/ha [4]: 0% | pest or weed control at 140 g/ha [4]: 0% | pest or weed control at 17.5 g/ha [5]: 0% | pest or weed control at 35 g/ha [5]: 0% | pest or weed control at 70 g/ha [5]: 0% | pest or weed control at 140 g/ha [5]: 0% | pest or weed control at 17.5 g/ha [6]: 0% | pest or weed control at 35 g/ha [6]: 0% | pest or weed control at 70 g/ha [6]: 0% | pest or weed control at 140 g/ha [6]: 20% | pest or weed control at 17.5 g/ha [7]: 0% | pest or weed control at 35 g/ha [7]: 0% | pest or weed control at 70 g/ha [7]: 0% | pest or weed control at 140 g/ha [7]: 0% | pest or weed control at 17.5 g/ha [8]: 0% | pest or weed control at 35 g/ha [8]: 0% | pest or weed control at 70 g/ha [8]: 0% | pest or weed control at 140 g/ha [8]: 0% | pest or weed control at 17.5 g/ha [9]: 0% | pest or weed control at 35 g/ha [9]: 0% | pest or weed control at 70 g/ha [9]: 0% | pest or weed control at 140 g/ha [9]: 0% | pest or weed control at 17.5 g/ha [10]: 0% | pest or weed control at 35 g/ha [10]: 0% | pest or weed control at 70 g/ha [10]: 0% | pest or weed control at 140 g/ha [10]: 0% | pest or weed control at 17.5 g/ha [11]: 0% | pest or weed control at 35 g/ha [11]: 0% | pest or weed control at 70 g/ha [11]: 0% | pest or weed control at 140 g/ha [11]: 10%
